The source of these data is ChEMBL document CHEMBL3286226, “Discovery of thienopyrimidine-based FLT3 inhibitors from the structural modification of known IKKβ inhibitors” (Bioorg Med Chem Lett, 2014).

Experiment [1] concerns RAW264.7. Briefly: cells. The following applies: Mus musculus.
Description: Antiinflammatory activity against mouse RAW264.7 cells assessed as reduction of LPS-induced NO production
Experiment [2] addresses T1, Inhibitor of nuclear factor kappa-B kinase subunit beta (Homo sapiens, UniProt O14920).
T1 sequence (O14920 whole entry): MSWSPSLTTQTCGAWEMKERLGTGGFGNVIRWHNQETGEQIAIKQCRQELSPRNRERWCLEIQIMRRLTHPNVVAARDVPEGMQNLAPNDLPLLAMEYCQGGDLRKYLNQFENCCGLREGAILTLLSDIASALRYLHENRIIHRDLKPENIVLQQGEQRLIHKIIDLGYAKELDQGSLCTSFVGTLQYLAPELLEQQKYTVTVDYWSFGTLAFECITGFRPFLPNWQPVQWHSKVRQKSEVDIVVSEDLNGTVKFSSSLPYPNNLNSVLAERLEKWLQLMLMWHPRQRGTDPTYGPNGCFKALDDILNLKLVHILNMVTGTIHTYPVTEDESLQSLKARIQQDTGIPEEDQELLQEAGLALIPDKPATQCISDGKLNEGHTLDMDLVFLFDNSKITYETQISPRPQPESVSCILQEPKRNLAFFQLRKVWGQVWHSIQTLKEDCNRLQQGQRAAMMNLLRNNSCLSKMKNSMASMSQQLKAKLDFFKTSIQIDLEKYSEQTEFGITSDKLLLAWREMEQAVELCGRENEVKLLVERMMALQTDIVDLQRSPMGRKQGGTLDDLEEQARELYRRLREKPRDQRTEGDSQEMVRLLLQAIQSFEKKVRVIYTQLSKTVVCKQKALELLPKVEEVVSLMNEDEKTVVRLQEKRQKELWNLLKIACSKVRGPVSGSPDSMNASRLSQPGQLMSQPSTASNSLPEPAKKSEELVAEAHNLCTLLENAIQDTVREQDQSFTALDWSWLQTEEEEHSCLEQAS
Description: Inhibition of IKKbeta kinase (unknown origin) by Lance ULight system

Experiment [3] deals with RAW264.7. Briefly: cells. Conditions: Mus musculus; call rule not given here. The source holds these as a separate data set.
A further experiment relates to K562. Put plainly: Growth inhibition of human K562 cells by XTT assay. Format: functional. Also on record: scale not given: the % may be the effect or the level left.
The subject of a further experiment is HL-60. Briefly: Growth inhibition of human HL60 cells by XTT assay. Format: functional.
The target of experiment [4] is T1, Inhibitor of nuclear factor kappa-B kinase subunit beta. The source holds these as a separate data set.
Description: (§1) Inhibition of IKKbeta kinase (unknown origin) by Radioisotope system
Experiment [5] concerns Receptor-type tyrosine-protein kinase FLT3 (Homo sapiens), P36888 [D835Y]. Briefly: Inhibition of human FLT3 kinase D835Y mutant assessed as residual activity at 10 uM relative to control.
The nature of experiment [6]: Growth inhibition of human THP1 cells by XTT assay. The following applies: THP-1. The class given is functional.
Another experiment has as its system MV4-11. Put plainly: Growth inhibition of human MV4-11 cells by XTT assay. The class given is functional.
Experiment [7] addresses Receptor-type tyrosine-protein kinase FLT3 (Homo sapiens) (UniProt P36888). Put plainly: Inhibition of human FLT3 kinase assessed as residual activity at 10 uM relative to control.
Experiment [8] concerns the target T2, Receptor-type tyrosine-protein kinase FLT3 (Homo sapiens, UniProt P36888).
T2 sequence (P36888 whole entry): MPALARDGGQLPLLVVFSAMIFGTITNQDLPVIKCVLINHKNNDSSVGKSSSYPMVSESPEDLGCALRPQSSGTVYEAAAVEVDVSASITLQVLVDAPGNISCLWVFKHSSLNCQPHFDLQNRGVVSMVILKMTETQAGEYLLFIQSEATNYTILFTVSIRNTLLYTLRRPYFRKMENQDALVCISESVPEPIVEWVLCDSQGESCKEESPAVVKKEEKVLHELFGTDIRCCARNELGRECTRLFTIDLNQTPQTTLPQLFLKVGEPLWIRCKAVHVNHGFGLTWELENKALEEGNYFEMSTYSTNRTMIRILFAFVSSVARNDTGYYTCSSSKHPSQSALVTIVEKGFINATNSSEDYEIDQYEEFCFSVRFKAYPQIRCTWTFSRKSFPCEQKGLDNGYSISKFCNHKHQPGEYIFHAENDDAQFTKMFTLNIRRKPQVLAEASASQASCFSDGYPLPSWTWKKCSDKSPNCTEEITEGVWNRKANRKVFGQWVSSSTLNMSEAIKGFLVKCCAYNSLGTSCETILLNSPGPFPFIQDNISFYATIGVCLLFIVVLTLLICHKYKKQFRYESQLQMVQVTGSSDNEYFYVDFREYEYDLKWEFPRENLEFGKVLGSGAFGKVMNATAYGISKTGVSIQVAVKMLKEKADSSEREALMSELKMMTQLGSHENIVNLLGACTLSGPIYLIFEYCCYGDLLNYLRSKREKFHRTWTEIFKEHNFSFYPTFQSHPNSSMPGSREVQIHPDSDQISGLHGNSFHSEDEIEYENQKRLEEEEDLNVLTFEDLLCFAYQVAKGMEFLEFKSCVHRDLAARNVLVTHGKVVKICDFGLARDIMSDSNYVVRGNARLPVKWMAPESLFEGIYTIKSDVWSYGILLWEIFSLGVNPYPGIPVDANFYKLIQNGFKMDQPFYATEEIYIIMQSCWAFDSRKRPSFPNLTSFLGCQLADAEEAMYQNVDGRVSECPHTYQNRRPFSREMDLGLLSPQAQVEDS
Description: Inhibition of FLT3 kinase (unknown origin)

The target of experiment [9] is T1, Inhibitor of nuclear factor kappa-B kinase subunit beta. This is another data set of the same source.
Description: as §1
Experiment [10] concerns the target MAP kinase-activated protein kinase 2 (Homo sapiens) (UniProt P49137). Briefly: Inhibition of human MAPKAP-K2 assessed as residual activity at 10 uM relative to control.
Experiment [11] has as its target Tyrosine-protein kinase Lck (Homo sapiens) (UniProt P06239). Briefly: Inhibition of human Lck assessed as residual activity at 10 uM relative to control.
Experiment [12] concerns the target Mitogen-activated protein kinase 14 (Homo sapiens) (UniProt Q16539). Put plainly: Inhibition of human SAPK2alpha assessed as residual activity at 10 uM relative to control.
Experiment [13] concerns the target Tyrosine-protein kinase Lyn (Homo sapiens) (UniProt P07948). Briefly: Inhibition of human Lyn assessed as residual activity at 10 uM relative to control.
The target in experiment [14] is Mitogen-activated protein kinase 13 (Homo sapiens) (UniProt O15264). Briefly: Inhibition of human SAPK4 assessed as residual activity at 10 uM relative to control.
Experiment [15] has as its target Dual specificity mitogen-activated protein kinase kinase 4 (Mus musculus) (UniProt P47809). Briefly: Inhibition of mouse MKK4 assessed as residual activity at 10 uM relative to control.
In experiment [16] the target is Inhibitor of nuclear factor kappa-B kinase subunit beta (Homo sapiens) (UniProt O14920). Briefly: Inhibition of human IKKbeta assessed as residual activity at 1 uM relative to control.
Experiment [17] has as its target Inhibitor of nuclear factor kappa-B kinase subunit alpha (Homo sapiens) (UniProt O15111). Put plainly: Inhibition of human IKKalpha assessed as residual activity at 10 uM relative to control.
Experiment [18] addresses Tyrosine-protein kinase JAK3 (Homo sapiens) (UniProt P52333). Put plainly: Inhibition of human JAK3 assessed as residual activity at 10 uM relative to control.
The target of experiment [19] is Non-receptor tyrosine-protein kinase TYK2 (Homo sapiens) (UniProt P29597). Put plainly: Inhibition of human TYK2 assessed as residual activity at 10 uM relative to control.
The target of experiment [20] is Dual specificity mitogen-activated protein kinase kinase 6 (Homo sapiens) (UniProt P52564). Put plainly: Inhibition of human MKK6 assessed as residual activity at 10 uM relative to control.
The target of experiment [21] is Mitogen-activated protein kinase 9 (Homo sapiens) (UniProt P45984). Put plainly: Inhibition of human JNK2alpha2 assessed as residual activity at 10 uM relative to control.
In experiment [22] the target is Mitogen-activated protein kinase 8 (Homo sapiens) (UniProt P45983). Put plainly: Inhibition of human JNK1alpha1 assessed as residual activity at 10 uM relative to control.
Experiment [23] has as its target Dual specificity mitogen-activated protein kinase kinase 7 (Homo sapiens) (UniProt O14733). Briefly: Inhibition of human MKK7beta assessed as residual activity at 10 uM relative to control.
In experiment [24] the target is Tyrosine-protein kinase BTK (Homo sapiens) (UniProt Q06187). Briefly: Inhibition of human BTK assessed as residual activity at 10 uM relative to control.
The target of experiment [25] is Tyrosine-protein kinase JAK1 (Homo sapiens) (UniProt P23458). Put plainly: Inhibition of human JAK1 assessed as residual activity at 10 uM relative to control.
Experiment [26] concerns the target Ribosomal protein S6 kinase alpha-5 (Homo sapiens) (UniProt O75582). Briefly: Inhibition of human MSK1 assessed as residual activity at 10 uM relative to control.
The target of experiment [27] is Rho-associated protein kinase 2 (Homo sapiens) (UniProt O75116). Put plainly: Inhibition of human ROCK-2 assessed as residual activity at 10 uM relative to control.
The target in experiment [28] is Mitogen-activated protein kinase 12 (Homo sapiens) (UniProt P53778). Briefly: Inhibition of human SAPK3 assessed as residual activity at 10 uM relative to control.
Experiment [29] deals with Receptor-type tyrosine-protein kinase FLT3 (Homo sapiens) (UniProt P36888). Briefly: Inhibition of human Flt3 assessed as residual activity at 10 uM relative to control.
Another experiment is filed under the species Homo sapiens. Put plainly: Inhibition of human PKA assessed as residual activity at 10 uM relative to control.
The target of experiment [30] is Mitogen-activated protein kinase 11 (Homo sapiens) (UniProt Q15759). Briefly: Inhibition of human SAPK2beta assessed as residual activity at 10 uM relative to control.

Dual specificity mitogen-activated protein kinase kinase 4 (Mus musculus), sequence (P47809 whole entry): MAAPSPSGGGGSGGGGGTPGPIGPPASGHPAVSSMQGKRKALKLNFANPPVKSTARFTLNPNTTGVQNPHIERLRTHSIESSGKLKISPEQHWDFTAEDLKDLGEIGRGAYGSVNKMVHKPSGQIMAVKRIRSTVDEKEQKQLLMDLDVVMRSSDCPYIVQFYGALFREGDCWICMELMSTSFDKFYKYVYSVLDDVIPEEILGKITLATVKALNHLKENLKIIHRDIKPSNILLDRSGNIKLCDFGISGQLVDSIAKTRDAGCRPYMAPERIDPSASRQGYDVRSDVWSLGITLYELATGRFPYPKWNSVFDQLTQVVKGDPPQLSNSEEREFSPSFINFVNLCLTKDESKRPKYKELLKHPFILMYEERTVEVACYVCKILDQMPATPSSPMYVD
Mitogen-activated protein kinase 9 (Homo sapiens), sequence (P45984 whole entry, looked up): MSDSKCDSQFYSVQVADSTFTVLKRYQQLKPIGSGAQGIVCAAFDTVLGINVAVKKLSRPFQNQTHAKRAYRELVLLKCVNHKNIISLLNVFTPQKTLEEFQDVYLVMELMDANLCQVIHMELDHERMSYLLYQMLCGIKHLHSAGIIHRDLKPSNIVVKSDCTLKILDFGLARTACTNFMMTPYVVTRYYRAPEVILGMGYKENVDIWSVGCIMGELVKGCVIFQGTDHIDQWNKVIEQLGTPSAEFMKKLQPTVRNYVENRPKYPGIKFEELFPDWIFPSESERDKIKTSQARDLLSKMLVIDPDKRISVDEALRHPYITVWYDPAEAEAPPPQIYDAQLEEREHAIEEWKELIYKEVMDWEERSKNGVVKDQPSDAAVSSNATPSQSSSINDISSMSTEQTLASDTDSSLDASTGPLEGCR
Tyrosine-protein kinase JAK1 (Homo sapiens), sequence (P23458 whole entry): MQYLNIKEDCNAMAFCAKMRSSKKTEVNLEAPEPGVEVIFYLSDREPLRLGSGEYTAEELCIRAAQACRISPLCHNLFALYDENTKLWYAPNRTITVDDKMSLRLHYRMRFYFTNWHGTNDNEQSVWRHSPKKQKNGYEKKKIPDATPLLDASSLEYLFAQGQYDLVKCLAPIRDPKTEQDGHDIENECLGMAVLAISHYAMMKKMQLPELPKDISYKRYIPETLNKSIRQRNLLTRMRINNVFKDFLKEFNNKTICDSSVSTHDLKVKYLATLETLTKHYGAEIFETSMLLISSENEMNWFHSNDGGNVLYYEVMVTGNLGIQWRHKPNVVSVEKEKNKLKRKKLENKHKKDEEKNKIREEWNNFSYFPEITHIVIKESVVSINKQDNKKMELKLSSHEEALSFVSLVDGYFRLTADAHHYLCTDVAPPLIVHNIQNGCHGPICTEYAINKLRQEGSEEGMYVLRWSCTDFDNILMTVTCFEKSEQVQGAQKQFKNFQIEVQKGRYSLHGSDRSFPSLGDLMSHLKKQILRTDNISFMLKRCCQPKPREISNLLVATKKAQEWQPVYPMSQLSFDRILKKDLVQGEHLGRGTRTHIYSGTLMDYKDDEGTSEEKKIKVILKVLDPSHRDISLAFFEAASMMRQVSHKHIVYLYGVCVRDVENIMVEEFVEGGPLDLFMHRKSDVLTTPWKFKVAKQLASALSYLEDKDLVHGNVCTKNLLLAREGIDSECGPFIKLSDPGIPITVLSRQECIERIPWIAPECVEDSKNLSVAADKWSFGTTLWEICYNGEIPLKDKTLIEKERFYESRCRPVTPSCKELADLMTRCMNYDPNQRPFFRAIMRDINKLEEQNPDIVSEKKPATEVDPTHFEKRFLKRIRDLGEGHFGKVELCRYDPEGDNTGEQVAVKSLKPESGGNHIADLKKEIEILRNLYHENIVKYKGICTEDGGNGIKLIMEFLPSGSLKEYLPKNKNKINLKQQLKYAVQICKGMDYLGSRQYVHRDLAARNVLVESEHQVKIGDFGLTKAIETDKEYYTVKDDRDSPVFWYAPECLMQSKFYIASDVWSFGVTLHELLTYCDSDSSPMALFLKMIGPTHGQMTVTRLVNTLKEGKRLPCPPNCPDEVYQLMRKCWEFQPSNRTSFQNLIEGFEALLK
Mitogen-activated protein kinase 12 (Homo sapiens), sequence (P53778 whole entry): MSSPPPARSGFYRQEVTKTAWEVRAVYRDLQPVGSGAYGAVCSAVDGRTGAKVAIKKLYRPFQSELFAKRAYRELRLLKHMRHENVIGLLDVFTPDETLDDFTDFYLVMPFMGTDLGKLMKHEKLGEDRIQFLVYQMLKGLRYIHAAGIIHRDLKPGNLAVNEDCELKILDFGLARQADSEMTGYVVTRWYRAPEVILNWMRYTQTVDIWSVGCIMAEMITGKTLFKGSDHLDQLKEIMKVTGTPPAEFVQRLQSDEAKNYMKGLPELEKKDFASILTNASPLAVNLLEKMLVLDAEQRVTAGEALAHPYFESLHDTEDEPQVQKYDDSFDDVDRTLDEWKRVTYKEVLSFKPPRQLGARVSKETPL
Non-receptor tyrosine-protein kinase TYK2 (Homo sapiens), sequence (P29597 whole entry): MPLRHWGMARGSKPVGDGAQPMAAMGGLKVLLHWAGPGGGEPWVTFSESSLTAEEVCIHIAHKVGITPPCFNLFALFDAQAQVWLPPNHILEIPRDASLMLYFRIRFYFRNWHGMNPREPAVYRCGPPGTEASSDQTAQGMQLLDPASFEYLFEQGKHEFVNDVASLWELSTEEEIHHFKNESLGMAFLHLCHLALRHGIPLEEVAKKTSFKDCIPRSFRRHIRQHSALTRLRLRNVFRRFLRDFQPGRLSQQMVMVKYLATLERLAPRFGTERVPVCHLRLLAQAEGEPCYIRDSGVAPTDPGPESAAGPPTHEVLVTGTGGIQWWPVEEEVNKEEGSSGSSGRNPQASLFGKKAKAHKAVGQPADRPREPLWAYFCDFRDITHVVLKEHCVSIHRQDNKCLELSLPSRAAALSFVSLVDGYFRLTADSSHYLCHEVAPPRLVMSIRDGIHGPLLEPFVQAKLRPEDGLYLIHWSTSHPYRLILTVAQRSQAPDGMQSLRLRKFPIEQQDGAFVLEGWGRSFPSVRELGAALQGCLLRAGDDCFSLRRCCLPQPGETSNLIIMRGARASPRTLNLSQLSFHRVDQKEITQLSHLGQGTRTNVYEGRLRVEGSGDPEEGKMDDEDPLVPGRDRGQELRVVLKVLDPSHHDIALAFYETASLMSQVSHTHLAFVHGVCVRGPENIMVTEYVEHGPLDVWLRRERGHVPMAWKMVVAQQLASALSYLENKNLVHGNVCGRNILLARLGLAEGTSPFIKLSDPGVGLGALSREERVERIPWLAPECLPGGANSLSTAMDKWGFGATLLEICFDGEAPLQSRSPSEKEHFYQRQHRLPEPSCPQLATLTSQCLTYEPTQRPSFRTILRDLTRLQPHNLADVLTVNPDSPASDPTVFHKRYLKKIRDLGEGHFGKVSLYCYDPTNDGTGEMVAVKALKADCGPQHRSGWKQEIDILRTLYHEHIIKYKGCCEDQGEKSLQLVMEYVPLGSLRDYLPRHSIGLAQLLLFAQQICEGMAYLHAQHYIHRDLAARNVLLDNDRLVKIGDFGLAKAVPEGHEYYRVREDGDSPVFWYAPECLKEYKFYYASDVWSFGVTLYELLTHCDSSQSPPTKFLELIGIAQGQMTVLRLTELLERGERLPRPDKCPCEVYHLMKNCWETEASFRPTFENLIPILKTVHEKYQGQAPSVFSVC
MAP kinase-activated protein kinase 2 (Homo sapiens), sequence (P49137 whole entry, looked up): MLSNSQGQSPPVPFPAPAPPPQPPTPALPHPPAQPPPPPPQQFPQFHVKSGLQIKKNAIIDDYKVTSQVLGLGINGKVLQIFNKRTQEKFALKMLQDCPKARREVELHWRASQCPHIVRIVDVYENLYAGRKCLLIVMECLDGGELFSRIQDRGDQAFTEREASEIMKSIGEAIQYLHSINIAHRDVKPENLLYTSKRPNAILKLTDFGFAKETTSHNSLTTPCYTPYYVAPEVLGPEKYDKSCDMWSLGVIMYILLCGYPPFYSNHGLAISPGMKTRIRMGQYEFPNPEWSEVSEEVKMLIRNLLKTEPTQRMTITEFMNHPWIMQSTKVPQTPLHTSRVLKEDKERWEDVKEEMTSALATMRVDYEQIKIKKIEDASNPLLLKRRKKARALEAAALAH
Ribosomal protein S6 kinase alpha-5 (Homo sapiens), sequence (O75582 whole entry, looked up): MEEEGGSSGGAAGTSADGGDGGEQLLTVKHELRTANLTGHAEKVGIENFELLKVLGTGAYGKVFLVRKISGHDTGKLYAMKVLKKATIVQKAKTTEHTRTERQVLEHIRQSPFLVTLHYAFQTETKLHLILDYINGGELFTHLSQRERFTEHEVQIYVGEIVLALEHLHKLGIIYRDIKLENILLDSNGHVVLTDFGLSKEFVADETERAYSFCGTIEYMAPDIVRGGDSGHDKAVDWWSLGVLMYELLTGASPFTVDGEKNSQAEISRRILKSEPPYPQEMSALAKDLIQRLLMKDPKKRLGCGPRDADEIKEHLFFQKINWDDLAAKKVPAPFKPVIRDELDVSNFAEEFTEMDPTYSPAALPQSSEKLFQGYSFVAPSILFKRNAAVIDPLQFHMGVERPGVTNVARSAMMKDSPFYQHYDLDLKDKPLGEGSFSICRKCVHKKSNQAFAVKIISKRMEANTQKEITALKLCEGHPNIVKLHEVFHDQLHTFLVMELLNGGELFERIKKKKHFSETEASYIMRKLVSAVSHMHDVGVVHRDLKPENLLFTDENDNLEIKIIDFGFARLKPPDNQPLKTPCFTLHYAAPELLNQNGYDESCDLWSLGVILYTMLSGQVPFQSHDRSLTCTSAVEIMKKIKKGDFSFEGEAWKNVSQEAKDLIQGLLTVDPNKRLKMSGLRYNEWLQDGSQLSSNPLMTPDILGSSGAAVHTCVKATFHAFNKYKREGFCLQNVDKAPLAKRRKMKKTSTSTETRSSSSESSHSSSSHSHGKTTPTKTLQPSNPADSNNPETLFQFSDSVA

In the case of `CC1=CC(=O)N(Nc2nc(-c3cccs3)nc3scc(C)c23)C1=O`, the IC50 in the experiment with RAW264.7 [1] was 1.92 µM; in experiment [2], greater than 50 µM; in the experiment with RAW264.7 [3], 4.22 µM; in [4] it was “Not Active”; in [8], 0.065 µM. For the same compound, the Activity was found to be 0.257% with K562, 2% in experiment [5] and 5% in experiment [7]. For the same compound, the concentration for 50% growth inhibition (GI50) in the experiment on HL-60 amounted to 0.264 µM; in [6], 0.111 µM; in the experiment on MV4-11 it was 0.003 µM.

As for `CC1=CC(=O)N(Nc2nc(-c3cccs3)nc3scc(-c4cccc(OCCN(C)C)c4)c23)C1=O`, the IC50 with RAW264.7 [1] was 7.54 µM; in experiment [2], greater than 50 µM; in the experiment on RAW264.7 [3], 9.88 µM; in experiment [9], greater than 50 µM.

Regarding `CC1=CC(=O)N(Nc2nc(-c3cccs3)nc3scc(-c4ccccc4)c23)C1=O`, the Activity in experiment [10] came out at 102%; in [11], 86%; in experiment [12], 92%; in experiment [13], 92%; in experiment [14] it was 90%; in [15], 113%. For the same compound, the Activity in experiment [16] was 116%; in experiment [17], 119%; in [18], 121%; in experiment [19], 86%; in experiment [20], 99%; in experiment [21], 94%. Further, the Activity is 87% in [22]; 122% in experiment [23]; 76% in [24]; 103% in experiment [25]; 96% in experiment [26]; 99% in [27]. The Activity in experiment [28] is 109%; in experiment [29], 8%; in the experiment filed under Homo sapiens it was 125%; in experiment [30], 98%. For the same compound, the IC50 in the experiment on RAW264.7 [1] was 0.75 µM; in experiment [2] it was greater than 50 µM; in the experiment on RAW264.7 [3] it was 1.29 µM; in experiment [4], “Not Active”; in experiment [8], 0.208 µM.

`CC1=CC(=O)N(Nc2nc(-c3cccs3)nc3scc(-c4cccc(OCCN5CCOCC5)c4)c23)C1=O`: the 50% inhibitory concentration (IC50) in the experiment on RAW264.7 [1] is 3.26 µM; in the experiment with RAW264.7 [3], 2.38 µM; in experiment [9], greater than 50 µM; in experiment [8] it was 0.54 µM.
